From the supplement of paper PMC11061612

Key:
Assay in all cases: combination Emax (second highest fraction inhibited in the dose matrix, 72 h); higher = more inhibition; extreme values may be limits of the assay
[1] = tested on: NCI-H1993 (Lung Adenocarcinoma)
Summary of the method: (§1)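 Bliss excess equals the observed combination effect minus the expected value EA + EB − EA·EB, where EA and EB are the effects of each agent alone. Combination Emax is the second-highest inhibition within the matrix. Inhibition was scaled from CellTiter-Glo 2.0 luminescence, with 0 set by vehicle wells and 1 by blank wells, after 72 hours of two-drug dosing of cells plated in 1536-well plates.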

[2] = tested on: Hey (Ovarian Carcinoma)
Summary of the method: as §1

[3] = tested on: A4-Fuk (B-Lymphoblastic Leukemia)
Summary of the method: as §1

[4] = tested on: HAL-01 (B-Lymphoblastic Leukemia)
Summary of the method: as §1

Compound	combination Emax [1]	combination Emax [2]	combination Emax [3]	combination Emax [4]
C=CCn1c(=O)c2cnc(Nc3ccc(N4CCN(C)CC4)cc3)nc2n1-c1cccc(C(C)(C)O)n1 [AZD1775] + C1CN(CCC1(C(=O)N[C@@H](CCO)C2=CC=C(C=C2)Cl)N)C3=NC=NC4=C3C=CN4 [Capivasertib] (first compound max 3 µM, partner max 3 µM)	0.701	0.726	0.859	0.977
NC1(C(=O)N[C@@H](CCO)c2ccc(Cl)cc2)CCN(c2ncnc3[nH]ccc23)CC1 [Capivasertib] + CC(=O)c1c(C)c2cnc(Nc3ccc(N4CCNCC4)cn3)nc2n(C2CCCC2)c1=O [Palbociclib] (first compound max 10 µM, 7x7, partner max 10 µM)	0.647	0.578	0.722	0.69
CS(=O)(=O)CCNCc1ccc(-c2ccc3ncnc(Nc4ccc(OCc5cccc(F)c5)c(Cl)c4)c3c2)o1 [Lapatinib] + C[C@@H](Oc1cc(-c2cnn(C3CCNCC3)c2)cnc1N)c1c(Cl)ccc(F)c1Cl [Crizotinib] (first compound max 10 µM, 7x7, partner max 10 µM)	0.94	0.865	0.976	0.955
CCc1c2c(nc3ccc(O)cc13)-c1cc3c(c(=O)n1C2)COC(=O)[C@]3(O)CC [SN-38] + O=C(c1cc(Cc2n[nH]c(=O)c3ccccc23)ccc1F)N1CCN(C(=O)C2CC2)CC1 [Olaparib] (first compound max 0.3 µM, 7x7, partner max 10 µM)	0.635	0.72	0.96	1
CC1(C)CCC(CN2CCN(c3ccc(C(=O)NS(=O)(=O)c4ccc(NCC5CCOCC5)c([N+](=O)[O-])c4)c(Oc4cnc5[nH]ccc5c4)c3)CC2)=C(c2ccc(Cl)cc2)C1 [Venetoclax] + Cn1cnc2c(F)c(Nc3ccc(Br)cc3Cl)c(C(=O)NOCCO)cc21 [Selumetinib] (first compound max 1 µM, 7x7, partner max 3 µM)	0.436	0.55	0.712	0.97
COc1nnc2ccc(N3CCC(c4ccc(OCCN5CCN(C)C(=O)[C@H]5C)cc4)CC3)nn12 [AZD5153] + C=CCn1c(=O)c2cnc(Nc3ccc(N4CCN(C)CC4)cc3)nc2n1-c1cccc(C(C)(C)O)n1 [AZD1775] (first compound max 1 µM, partner max 1 µM)	0.545	0.655	0.967	0.88
Cn1cnc2c(F)c(Nc3ccc(Br)cc3Cl)c(C(=O)NOCCO)cc21 [Selumetinib] + CCN(CCO)CCCOc1ccc2c(Nc3cc(CC(=O)Nc4cccc(F)c4)[nH]n3)ncnc2c1 [AZD2811] (first compound max 10 µM, 7x7, partner max 1 µM)	0.703	0.611	0.661	0.441
COc1cccc2c1C(=O)c1c(O)c3c(c(O)c1C2=O)C[C@@](O)(C(=O)CO)C[C@@H]3O[C@H]1C[C@H](N)[C@H](O)[C@H](C)O1 [Doxorubicin] + Cc1cc2ncnn2cc1Nc1ncc2c(n1)n(C1CCOCC1)c(=O)n2C [AZD7648] (first compound max 1 µM, 7x7, partner max 10 µM)	0.968	0.906	0.877	0.986
COc1cccc(OCCCN)c1-c1cc(Nc2cnc(C#N)cn2)n[nH]1 [Prexasertib] + O=C(c1cc(Cc2n[nH]c(=O)c3ccccc23)ccc1F)N1CCN(C(=O)C2CC2)CC1 [Olaparib] (first compound max 1 µM, 7x7, partner max 10 µM)	0.845	0.827	0.919	1
CC1(C)CCC(CN2CCN(c3ccc(C(=O)NS(=O)(=O)c4ccc(NCC5CCOCC5)c([N+](=O)[O-])c4)c(Oc4cnc5[nH]ccc5c4)c3)CC2)=C(c2ccc(Cl)cc2)C1 [Venetoclax] + Cc1cc2ncnn2cc1Nc1ncc2c(n1)n(C1CCOCC1)c(=O)n2C [AZD7648] (first compound max 1 µM, 7x7, partner max 10 µM)	0.541	0.328	0.667	0.881
C=CCn1c(=O)c2cnc(Nc3ccc(N4CCN(C)CC4)cc3)nc2n1-c1cccc(C(C)(C)O)n1 [AZD1775] + O=C(c1cc(Cc2n[nH]c(=O)c3ccccc23)ccc1F)N1CCN(C(=O)C2CC2)CC1 [Olaparib] (first compound max 1 µM, partner max 10 µM)	0.604	0.552	0.875	0.935
Cc1c2c(nn1C)CSCc1cc(n(C)n1)CSc1cc(c3ccccc3c1)OCCCc1c(C(=O)O)n(C)c3c-2c(Cl)ccc13 [AZD5991] + CN(C)CCCOc1ccc(-c2ccc3ncc4c(c3c2)n(C2CCOCC2)c(=O)n4C)cn1 [AZD0156] (first compound max 1 µM, 7x7, partner max 1 µM)	0.474	0.254	1	0.686
CN(CCO)CC[C@H](CSc1ccccc1)Nc1ccc(S(=O)(=O)NC(=O)c2ccc(N3CCC([C@@H](O)c4ccccc4-c4ccc(Cl)cc4)CC3)cc2)cc1S(=O)(=O)C(F)(F)F [AZD4320] + CN(C)CCCOc1ccc(-c2ccc3ncc4c(c3c2)n(C2CCOCC2)c(=O)n4C)cn1 [AZD0156] (first compound max 1 µM, 7x7, partner max 1 µM)	0.742	0.256	0.476	0.853
COc1cccc(OCCCN)c1-c1cc(Nc2cnc(C#N)cn2)n[nH]1 [Prexasertib] + C[C@@H]1COCCN1C2=NC(=NC(=C2)C3(CC3)[S@](=N)(=O)C)C4=C5C=CNC5=NC=C4 [AZD6738] (first compound max 1 µM, 7x7, partner max 10 µM)	0.721	0.877	0.879	1
C[C@@H]1COCCN1c1cc(C2([S@](C)(=N)=O)CC2)nc(-c2ccnc3[nH]ccc23)n1 [AZD6738] + O=C(c1cc(Cc2n[nH]c(=O)c3ccccc23)ccc1F)N1CCN(C(=O)C2CC2)CC1 [Olaparib] (first compound max 10 µM, 7x7, partner max 10 µM)	0.549	0.699	0.706	0.982
CCN(CCO)CCCOc1ccc2c(Nc3cc(CC(=O)Nc4cccc(F)c4)[nH]n3)ncnc2c1 [AZD2811] + C=CCn1c(=O)c2cnc(Nc3ccc(N4CCN(C)CC4)cc3)nc2n1-c1cccc(C(C)(C)O)n1 [AZD1775] (first compound max 1 µM, partner max 1 µM)	0.458	0.497	0.852	0.891
COc1nnc2ccc(N3CCC(c4ccc(OCCN5CCN(C)C(=O)[C@H]5C)cc4)CC3)nn12 [AZD5153] + CCN(CCO)CCCOc1ccc2c(Nc3cc(CC(=O)Nc4cccc(F)c4)[nH]n3)ncnc2c1 [AZD2811] (first compound max 1 µM, 7x7, partner max 1 µM)	0.479	0.618	0.893	0.752
CC(=O)Nc1cccc(-n2c(=O)n(C3CC3)c(=O)c3c(Nc4ccc(I)cc4F)n(C)c(=O)c(C)c32)c1 [Trametinib] + Cc1nc(-c2cn3c(n2)-c2ccc(-c4cnn(C(C)(C)C(N)=O)c4)cc2OCC3)n(C(C)C)n1 [Taselisib] (first compound max 1 µM, 7x7, partner max 10 µM)	0.898	0.893	1	0.687
COc1cccc(OCCCN)c1-c1cc(Nc2cnc(C#N)cn2)n[nH]1 [Prexasertib] + Cc1cc2ncnn2cc1Nc1ncc2c(n1)n(C1CCOCC1)c(=O)n2C [AZD7648] (first compound max 1 µM, 7x7, partner max 10 µM)	0.777	0.777	0.89	1
CN(C)CCCOc1ccc(-c2ccc3ncc4c(c3c2)n(C2CCOCC2)c(=O)n4C)cn1 [AZD0156] + O=C(c1cc(Cc2n[nH]c(=O)c3ccccc23)ccc1F)N1CCN(C(=O)C2CC2)CC1 [Olaparib] (first compound max 3 µM, partner max 3 µM)	0.498	0.408	0.553	0.563
